Reference: publication PMC8151848, “Tambjamines and Prodiginines: Biocidal Activity against Trypanosoma cruzi” (Pharmaceutics, 2021)
Read-outs that look alike come from different tables or passages of the source.

Columns and labels:
[1] = tested on: epimastigotes of T. cruzi (CL strain, clone B5); parameters: method as in PMID 31210760; settings: read-out: IC50 against epimastigotes of T. cruzi (earlier study); cited from earlier work
[2] = tested on: trypomastigotes/amastigotes of T. cruzi (CLB strain); assay: Trypomastigote/amastigote susceptibility assay in infected L-929 fibroblasts; type: cell-based, Trypanosoma cruzi; settings: for IC50: CLB strain, 96 h treatment, read-out: IC50 (µM) trypomastigote/amastigote growth inhibition
Protocol: This assay was performed in 96-well microplates. Briefly, 4 × 10^3 L-929 fibroblasts were seeded in 80 µl of MEM containing 10% FBS and antibiotics. The plate was placed overnight at 37 °C in a 5% CO2 humidified incubator to allow cell adherence. Afterward, the cells were infected with 20 µL of trypomastigotes (40,000 trypomastigotes/well (4000 mammalian cells)) diluted in the same medium. The cell:parasite ratio was 1:10. Plates were incubated for 2 h at 33 °C and 5% CO2. The medium was then discarded to dispose of nonpenetrated parasites and replaced with 200 µL of MEM without phenol red supplemented with FBS and antibiotics. After 48 h of incubation, the content of the wells was replaced with a fresh medium containing the dilutions of the compounds. The plates were returned to the incubator for an additional 96 h under the same conditions. Wells containing drug blanks, medium, fibroblasts, and untreated infected cells were included in all the plates as controls. An internal control of the reference drug (benznidazole) was also included. Next, 50 µl of substrate CPRG (diluted in 3% Triton X-100 solution) were added at a final concentration of 400 µM. After 18–20 h of incubation at 37 °C, absorbance readings were taken at 595 nm using a scanning multiwell spectrophotometer. All the assays were performed in triplicate and the experiments were run three times in different weeks. The results are expressed as the percentage of trypomastigote/amastigote growth inhibition (% T/A GI value) as follows:(2) %Trypomastigote/Amastigote growth inhibition=100−(AE−AEB)/(AC−ACB) ×100 where AE is the absorbance of the experimental group, AEB the absorbance of the compound blank, AC the absorbance of the control group, and ACB the absorbance of the culture medium blank. The IC50 values (the drug concentration that eliminates 50% of the parasites) were determined for each compound using the GraphPad Prism software.

[3] = POPC vesicles, external nitrate; ref 1 (Hernando et al., Sci. Rep., 2018); read-out: EC50 (µM) NO3–/Cl–; cited from earlier work
[4] = tested on: Giardia; parameters: method as in PMID 32196500; settings: read-out: IC50 against Giardia; cited from earlier work
[5] = tested on: Entamoeba; parameters: method as in PMID 32196500; settings: read-out: IC50 against Entamoeba; cited from earlier work
[6] = tested on: Trypanosoma brucei; parameters: method as in PMID 32196500; settings: read-out: IC50 against Trypanosoma brucei; cited from earlier work
[7] = IC50 for L-929 fibroblasts / IC50 for T. cruzi trypomastigotes/amastigotes
[8] = Trypanosoma cruzi, L929, highest concentration assayed (16 µM), n = 9, read-out: % Trypomastigote/Amastigote Growth Inhibition (%T/A GI ± SD)

SMILES: O=C(Cn1ccnc1[N+](=O)[O-])NCc1ccccc1 [Benznidazole, reference compound]
- IC50 [1]: 18000 nM
- Selectivity index (SI), Trypomastigotes [2, 7]: 779.71
- IC50 ([2]; Trypanosoma cruzi, L929): 1.76 ± 0.34 µM
- inhibition at 16 µM [2, 8]: 76 ± 5.02%

SMILES: CCCCCC1=C/C(=C/c2[nH]c(-c3ccc[nH]3)cc2OC)N=C1C [Natural prodigiosin, prodigiosin]
- Selectivity index (SI), Trypomastigotes [2, 7]: 50
- % Trypomastigote/Amastigote Growth Inhibition (%T/A GI ± SD) ([2]; highest concentration assayed (16 µM), n = 9): 100 ± 0%
- IC50 [2]: 0.1 ± 0.04 µM

SMILES: CCCCCC1=C/C(=C/c2[nH]c(-c3ccc[nH]3)cc2OC)N=C1C [Synthetic prodigiosin, prodigiosin]
- Selectivity index (SI), Trypomastigotes [2, 7]: 5.36
- inhibition at 16 µM ([2]; Trypanosoma cruzi, L929, read-out: % Trypomastigote/Amastigote Growth Inhibition (%T/A GI ± SD)): 100%
- IC50 [2]: 0.57 ± 0.19 µM

SMILES: CCc1c(-c2ccc[nH]2)[nH]c(/C=N/C2CCCCC2)c1C [MM3]
- Selectivity index (SI), Trypomastigotes [2, 7]: 6.42
- IC50 ([2]; Trypanosoma cruzi, L929): 1.9 ± 0.45 µM
- inhibition at 16 µM [2, 8]: 97.1 ± 3.01%
- EC50 [3]: 0.035 µM

SMILES: COC1=CC(c2cc3ccccc3[nH]2)=N/C1=C\c1[nH]c(C)cc1C [Obatoclax, reference compound]
- IC50 [4]: 900 nM
- Selectivity index (SI), Trypomastigotes [2]: 2.24
- IC50 ([2]; Trypanosoma cruzi, L929): 2.6 ± 0.4 µM
- inhibition at 16 µM [2, 8]: 88.4 ± 6%
- IC50 [5]: 500 nM
- IC50 [6]: 40 nM
